The target of assay [1] is T1, AChE from electric eel (Electrophorus electricus) (Electrophorus electricus, UniProt O42275).
T1 construct: purchased Sigma-Aldrich GmbH (Steinheim, Germany)
Description: HPTLC-(Ox)-AChE-I assay, immersion method (plates immersed in AChE solution). In kind it is biochemical. The conditions noted are these: without oxidation. How it is done:
(§1) LiChrospher 10 × 20 cm HPTLC Silica gel 60 F254s plates (Merck, Darmstadt, Germany) with a layer thickness of 170–190 µm and spherical silica particles with a size of 7 µm were used. The HPTLC plates were immersed twice in 2-propanol for 20 min, each time followed by a drying step at room temperature for 20 min. The plates then were pre-developed with methanol, dried for 20 min at room temperature, heated at 105 °C for 20 min, and stored in a desiccator for further use. The automatic TLC Sampler 4 (ATS 4, CAMAG AG, Muttenz, Switzerland) was used for sample application. The desired sample volumes were sprayed as 6-mm-wide bands onto the HPTLC plates with an application speed of 300 nL/s. The distances of the exterior bands from the edges of the plates were 15 mm. The distance from the bottom edge was 8 mm for all bands. Methanol was used as rinsing solvent. The following further application parameters were used: filling speed 15 µL/s, pre-dosage volume 200 nL, retraction volume 200 nL, rinsing vacuum time 4 s, filling vacuum time 0 s, rinsing cycles 2, and filling cycles 1. The development of the HPTLC plates was realized by the Automated Multiple Development 2 (AMD 2, CAMAG, Muttenz, Switzerland). The OTPs, their oxons, and environmental samples were separated with an eluent mixture of cyclohexane, dichloromethane, and acetone in different proportions and with increasing migration distances (Fig. S2). After each development step, a drying step of 3 min under vacuum followed. The final migration distance was 80 mm and the whole procedure took approximately 45 min. In addition, a simpler development process was used containing only the last step of the previous described method.
(§2) After chromatographic development, 10 mL of freshly prepared NBS (100 µg/mL) was sprayed onto the HPTLC plates with a glass reagent sprayer, followed by a 5-min incubation at room temperature. The following AChE-I assay was performed in parts according to Mendoza et al., Stütz et al., and Weins and Jork. AChE was buffered in TRIS/HCl at a pH of 7.8 (2.5 U/mL). The AChE solution was either sprayed onto the HPTLC plates with a glass reagent sprayer until the plates were evenly moist (approx. 10 mL) or the plates were immersed in the AChE solution using the Chromatogram Immersion Device 3 (CID 3, CAMAG, Muttenz, Switzerland). The immersion volume, speed, time, and depth were approx. 200 mL, 2.5 cm/s, 2 s, and approx. 85 mm, respectively. Afterward, the plates were placed separately in closed plastic boxes, which contained paper towels moistened with water to gain a saturated atmosphere. An incubation at 37 °C for 5 min followed. The substrate indoxyl acetate was freshly prepared in methanol at a concentration of 20 mg/mL and 5 mL was sprayed onto the HPTLC plates with a glass reagent sprayer. During 45-min incubation time at room temperature, AChE cleaves the substrate into indoxyl and acetate. The indoxyl reacts with oxygen to the blue indigo dye. When AChE was inhibited, no indigo was produced and the spot stayed white. The TLC Scanner 3 (CAMAG, Muttenz, Switzerland) was used to scan each track on the plates at 670 nm using the fluorescence mode without optical filter. The CAMAG-embedded software Wincats (Vers. 1.4.9) was used to provide chromatograms of each track and to evaluate inhibition zones.
Several amounts of an OTP mix and an oxon mix were applied on HPTLC plates (Tab. S2) and tested as described in the “Combination of HPTLC and AChE-inhibition assay” section. Three plates were used for each dilution series. The application volume was 10 µL for investigating OTPs with following oxidation and 100 µL for testing OTPs without following oxidation. The application volume for the oxons was 10 µL. They were tested without oxidation step also in triplicates. The peak heights were used for evaluation. Only peaks that have a signal-to-noise ratio ≥ 3 were considered in the evaluation. The height next to the respective peak defines the noise. […]

Assay [2] addresses T1, AChE from electric eel (Electrophorus electricus). Description: Recovery of AChE-I effect peak area in spiked water samples after SPE and HPTLC-Ox-AChE-I (spray). The conditions noted are these: for Recovery of the effect peak area related to positive control (100%): spiked 100 ng OTP, SPE, 10 ng/spot, NBS oxidation, spray, ± SD, n = 4; for AChE-I effect recoveries in comparison to the positive control, range over samples: samples from stormwater retention basin and receiving stream, after SPE and HPTLC-Ox-AChE-I. How it is done: The samples were enriched by SPE within 24 h after sampling. Moreover, the field blank and water for a SPE blank were enriched in the same way. For additional matrix investigations, 1 mL malathion, parathion, and chlorpyrifos (100 ng/mL in methanol) were spiked into native samples taken in August 2020 and a water control before being loaded on the SPE cartridges. The cartridges (150 mg, Oasis HLB 6 cc, Waters GmbH, Eschborn, Germany) were conditioned with methanol (2 × 5 mL) and equilibrated with water (2 × 5 mL), before being loaded with 1000 ± 5 mL sample (the exact volume was determined by weighting) through a polytetrafluoroethylene tube. After drying the cartridges under vacuum, they were stored at − 18 °C until further usage. The cartridges were eluted with methanol (5 × 5 mL) that was evaporated afterward at 60 °C under a gentle nitrogen gas stream. The dried extracts were redissolved in 1 mL methanol to achieve a nominal 1000-fold enrichment.
The extracts, spiked samples, positive controls (PC: mix of malathion, parathion, and chlorpyrifos), and blanks were tested with the HPTLC-Ox-AChE-I method as described in the “Combination of HPTLC and AChE-inhibition assay” section. Each sample was tested in duplicates on two HPTLC plates (n = 4). The application volume was 100 µL resulting in a PC of 2000 ng/spot. The resulting amounts for the matrix investigation were 1000 and 10 ng/spot for the PCs and 10 ng/spot for the spiked samples. The matrix investigation was performed with and without the oxidation step. Excel was used to relate the peak areas of the spiked samples to the peak areas of the PCs (10 ng/spot). Differences between both approaches (oxidation and no oxidation) were shown by comparing the results of the spiked samples and PCs.

For assay [3] the target is unchanged. Description: HPTLC-(Ox)-AChE-I assay, spray method (AChE sprayed onto plates). In kind it is biochemical. The method, then: as §1
as §2, with “The” for “After chromatographic development, 10 mL of freshly prepared NBS (100 µg/mL) was sprayed onto the HPTLC plates with a glass reagent sprayer, followed by a 5-min incubation at room temperature. The”
Several amounts of an OTP mix and an oxon mix were applied on HPTLC plates (Tab. S2) and tested as described in the “Combination of HPTLC and AChE-inhibition assay” section. Three plates were used for each dilution series. The application volume was 10 µL for investigating OTPs with following oxidation and 100 µL for testing OTPs without following oxidation. The application volume for the oxons was 10 µL. They were tested without oxidation step also in triplicates. The peak heights were used for evaluation. Only peaks that have a signal-to-noise ratio ≥ 3 were considered in the evaluation. The height next to the respective peak defines the noise.

[4] abbreviates: Spiked water (ultrapure water control).
The mark [5] stands for this setting: sampling point Stormwater basin.
[6] abbreviates: spray method, without oxidation.
Where [7] appears, read: OTPs 100 µL, oxons 10 µL applied, peak heights, n = 3.
The mark [8] stands for this setting: spray method, without oxidation, OTPs 100 µL, oxons 10 µL applied, peak heights, n = 3.

The structures appear in SMILES notation.

T1 sequence (O42275 24-633): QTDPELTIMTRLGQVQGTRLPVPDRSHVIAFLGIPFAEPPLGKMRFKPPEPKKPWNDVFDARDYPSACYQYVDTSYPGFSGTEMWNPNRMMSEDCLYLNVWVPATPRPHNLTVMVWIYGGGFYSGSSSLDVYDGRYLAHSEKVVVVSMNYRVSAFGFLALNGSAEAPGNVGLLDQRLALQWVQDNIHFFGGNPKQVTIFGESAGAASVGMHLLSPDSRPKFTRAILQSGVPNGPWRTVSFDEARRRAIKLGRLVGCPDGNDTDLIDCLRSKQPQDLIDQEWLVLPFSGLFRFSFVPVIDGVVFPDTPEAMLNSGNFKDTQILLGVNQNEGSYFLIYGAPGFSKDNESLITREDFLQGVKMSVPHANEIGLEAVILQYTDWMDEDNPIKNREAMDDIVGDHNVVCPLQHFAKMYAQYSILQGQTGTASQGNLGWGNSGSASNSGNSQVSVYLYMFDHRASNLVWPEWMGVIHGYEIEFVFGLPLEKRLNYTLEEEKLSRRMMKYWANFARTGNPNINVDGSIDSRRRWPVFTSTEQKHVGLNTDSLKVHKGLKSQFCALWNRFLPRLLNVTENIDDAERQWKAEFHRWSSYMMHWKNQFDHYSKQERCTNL

For `CCOP(=S)(OCC)Oc1nc(Cl)c(Cl)cc1Cl` [Chlorpyrifos, chlorpyrifos], the “LOD immersion method (first detected AChE-I peak with signal-to-noise ratio ≥ 3)” value in assay [1] came out at 500 ng/spot. Further, the “Recovery of the effect peak area related to positive control (100%)” value (shortened to “Recovery … (100%)”) in assay [2] (setting [4]) was found to be 63 ± 4%; in assay [2] (sampling point Downstream) it was 69 ± 5%; in assay [2] (setting [5]) it was 74 ± 5%; in assay [2] (sampling point Upstream), 78 ± 7%. Also, the “AChE-I effect recoveries in comparison to the positive control, range over samples” value in assay [2] was 69–78%. In addition, the “LOD spray method (first detected AChE-I peak with signal-to-noise ratio ≥ 3)” value in assay [3] (setting [6]) came to 250 ng/spot.
`CCOC(=O)CC(SP(=S)(OC)OC)C(=O)OCC` (centres unmarked) [Malathion, malathion]: the “LOD immersion method (first detected AChE-I peak with signal-to-noise ratio ≥ 3)” value in assay [1] came to 250 ng/spot. Also, the “IC10 (10% AChE inhibition), best fit” value is 313 ng/spot in assay [1] (setting [7]) and 212 ng/spot in assay [3] (setting [8]). Moreover, the “IC20 (20% AChE inhibition), best fit” value in assay [1] (setting [7]) was found to be 536 ng/spot; in assay [3] (setting [8]), 493 ng/spot. Also, the results for the “IC50 (50% AChE inhibition), best fit” value in assay [1] (setting [7]) and in assay [3] (setting [8]) were 1343 ng/spot and 2096 ng/spot, respectively. The “IC80 (80% AChE inhibition), best fit” value in assay [1] (setting [7]) came out at 3363 ng/spot; in assay [3] (setting [8]) it was 8910 ng/spot. The “Recovery … (100%)” value in assay [2] (setting [4]) was 85 ± 6%; in assay [2] (sampling point Downstream), 87 ± 12%; in assay [2] (setting [5]), 81 ± 8%; in assay [2] (sampling point Upstream), 92 ± 11%. Moreover, in assay [3] (setting [6]), the “LOD spray method (first detected AChE-I peak with signal-to-noise ratio ≥ 3)” value was 250 ng/spot.
Turning to `O=C1CCC(=O)N1Br` [NBS, N-Bromosuccinimide], the “Effect of higher NBS concentration on AChE on the HPTLC plate” value in assay [3] (1 mg/mL NBS tested for oxidation on HPTLC plate, application method not stated) was “lower activity or inhibition of AChE”.
Regarding `CCOP(=S)(OCC)Oc1ccc([N+](=O)[O-])cc1` [Parathion, parathion], the “LOD immersion method (first detected AChE-I peak with signal-to-noise ratio ≥ 3)” value in assay [1] is 500 ng/spot. Moreover, the “Recovery … (100%)” value stood at 74 ± 3% in assay [2] (setting [4]), 79 ± 13% in assay [2] (sampling point Downstream), 75 ± 9% in assay [2] (setting [5]) and 82 ± 10% in assay [2] (sampling point Upstream). Besides, the “AChE-I effect recoveries in comparison to the positive control, range over samples” value in assay [2] was 75–82%. Moreover, the “LOD spray method (first detected AChE-I peak with signal-to-noise ratio ≥ 3)” value in assay [3] (setting [6]) came to 100 ng/spot.

Values taken from publication PMC9124651, “High-performance thin-layer chromatography in combination with an acetylcholinesterase-inhibition bioassay with pre-oxidation of organothiophosphates to determine neurotoxic effects in storm, waste, and surface water” (Analytical and Bioanalytical Chemistry, 2022).
